Results from patent US12427161B2, “Methods for treating and pharmaceutical compositions” (Boehringer Ingelheim International GmbH, priority 2015, dated 2025).

Tests used:
[1] = tested on: Goto-Kakizaki diabetic rats (GK rats); experiment: Erectile responses to electrical stimulation of the cavernous nerve (ES CN), intracavernous pressure in anesthetized rats; type: in vivo, rat
Experimental: Adult male Wistar (Charles River, France) and age-matched GK rats (Metabrain Research, Chilly-Mazarin, France) were housed at least 7 days prior to the beginning of the treatment with free access to control diet and water and maintained on an inversed 12 h dark/light cycle. At 15 weeks of age, treatments were started; n=12 Wistar (group I) rats and n=24 GK (group II) rats were fed with a control diet, while n=24 GK rats (group III) were fed for 28 days by a medicated diet i.e., control diet premixed with empagliflozin 300 ppm (parts per million corresponding to an average of 25.3 mg/kg body weight of empaglfilozin in that experiment).
On day 29th after starting treatment administration, and approximately 16 hours after the last treatment administration, fasted rats (19 weeks of age) underwent an in vivo evaluation of their erectile function after electrical stimulation of the cavernous nerve (ES CN), in comparison to acute dosing of sildenafil.
Erectile responses were elicited by electric stimulation (ES) of the cavernous nerve (CN) and measured by monitoring intracavernous pressure (ICP) in anesthetized rats according to an experimental procedure previously described and well-standardized. After an overnight fasting period, rats were anesthetized (urethane […]) and their temperature maintained at 37° C. using a homoeothermic blanket. A tracheotomy was performed to prevent aspiration of saliva and to perform, when required, artificial ventilation. The carotid artery was catheterized with polyethylene tubings filled with heparinized saline (25 UI/ml) to record blood pressure (BP) via a pressure transducer (Elcomatic 750, Glasgow, UK). Simultaneous computerized measure of BP and ICP was performed. CN was exposed at the lateral aspect of the prostate, with the aid of a dissecting microscope and mounted on a bipolar platinum electrode connected to an electrical stimulator (AMS 2100, Phymep, France). In some animals an acute dose of sildenafil (0.3 mg/kg) or vehicle was intravenously injected. […] The CN was stimulated at 6V, 1 ms for 45 s by different stimulation frequencies (0, 2.5, 5, 7.5, 10, 12.5 and 15 Hz) in a randomized manner in order to assess the erectile responses. These different electrical stimulations on the increase of ICP were repeated twice in view of establishing a frequency-response curve for each animal.
Mean arterial pressure (MAP) and the amplitude of the erectile responses elicited by each ES CN were quantified for each rat and averaged for each experimental group by calculating: • ICP (mmHg)/MAP (mmHg)×100 with AICP being the difference between ICP in the flaccid state, i.e. before stimulation and ICP during the plateau phase of the erectile response, and MAP, the mean arterial pressure during the plateau phase. • AUC45/MAP with AUC45, the area under the curve during the first 45 seconds after the beginning of the electrical stimulation of the cavernous nerve and determined using the ICP level in the flaccid state before the onset of the stimulation. • AUCtot/MAP with AUCtot, the area under the curve during the entire erectile response, measured from the beginning of the electrical stimulation until the end of the erectile response and determined using the ICP level in the flaccid state before the onset of the stimulation. • ICP increase and AUC were normalized with MAP to account for the close influence of the systemic blood pressure in the amplitude of ICP increase during the plateau phase of the erectile response.
For erectile function evaluation, comparisons of frequency-response curves were performed with a two-way ANOVA statistical analysis test followed by a Bonferroni's post-test. In case of significant interaction between the two factors (i.e. frequency of ES CN and experimental group), the difference between groups of rats was examined by the modified Student's t-test with the Bonferroni's adjustment for multiple comparisons.

GK rats = details: acute single dose 0.3 mg/kg; cited from earlier work
[2] = tested on: corporal strips of diabetic GK rats; experiment: EFS-induced relaxation of PHE-precontracted corpora cavernosa strips (ex vivo isometric tension); design: species or system rat
Experimental: In addition, to further evaluate erectile function, at the end of the in vivo evaluation of the ED, the penis of 24 GK rats (groups IIA & IIIA) and 12 wistar rats (group I) were immediately harvested and the corpora cavernosa (CC) dissected for ex vivo isometric tension studies. After extensive washings, corporal strips were incubated in the presence of guanethidine (5 μM) and atropine (1 μM) that were also added to the organ chambers for the remainder of the experiments. The corporal strips were placed between two parallel platinum electrodes in the organ baths. After equilibration (60 min), the electric field stimulation (EFS) experiments were started. Firstly, a priming period was observed where corporal strips from Wistar, GK (control) and GK_Chronic empa were exposed to phenylephrine (PHE) (10^−5 M) followed by an EFS-induced relaxation at 1 ms, 10 s, 300 mA and 20 Hz. Then, after washings, frequency-response curves (FRC) to EFS (1-2-4-8-16-32 Hz) was constructed on PHE-precontracted corporal strips (PHE 10^−5 M). Frequency response-curves (FRC) to EFS were performed by successive stimulation of the corporal strips at 1 ms, 10 s, 300 mA and increasing frequencies (1, 2, 4, 8, 16 and 32 Hz). […]
The results from duplicate determinations in one experiment with CC from one rat were averaged and the data expressed as mean±SEM for N experiments using CC from N different rats. […]

[3] = metformin on its own, in the diabetic; cited from earlier work

**Q.** Which “erectile response to ES CN in terms of ΔICP/MAP” value ([1]; sildenafil 0.3 mg/kg acute i.v. 4 min before evaluation, vs GK control, p<0.0001, 2-way ANOVA, FIG. 1) does the source give for `CCCc1nn(C)c2c(=O)[nH]c(-c3cc(S(=O)(=O)N4CCN(C)CC4)ccc3OCC)nc12` [sildenafil] here?
**A.** Its value is “significantly increased”.

**Q.** And the “erectile response to ES CN in terms of AUC45/MAP” value ([1]; sildenafil 0.3 mg/kg acute i.v., vs GK control, p<0.0001, 2-way ANOVA, FIG. 2a)?
**A.** Its value is “significantly increased”.

**Q.** And the “erectile response to ES CN in terms of AUCtot/MAP” value ([1]; sildenafil 0.3 mg/kg acute i.v., vs GK control, p<0.0001, 2-way ANOVA, FIG. 2b)?
**A.** Its value is “significantly increased”.

**Q.** And the “impaired erectile function in GK rats” value (GK rats)?
**A.** The value was “partially improved”.

**Q.** Which “pro-erectile facilitator effect compared with acute IV dose of sildenafil at 0.3 mg/kg” value ([1]; chronic empagliflozin 25.3±0.9 mg/kg/day) does the source give for `OC[C@H]1O[C@@H](c2ccc(Cl)c(Cc3ccc(O[C@H]4CCOC4)cc3)c2)[C@H](O)[C@@H](O)[C@@H]1O` [empagliflozin, 1-chloro-4-(β-D-glucopyranos-1-yl)-2-[4-((S)-tetrahydrofuran-3-yloxy)-benzyl]-benzene] here?
**A.** Its value is “slightly but significantly lower”.

**Q.** What about the “erectile responses to ES CN in terms of ΔICP/MAP” value ([1]; empagliflozin in diet 25.3±0.9 mg/kg/day for 4 weeks, vs GK control diet, p=0.08, 2-way ANOVA, FIG. 1) of the same molecule?
**A.** Its value is “no difference could be statistically detected”.

**Q.** And the “erectile responses to ES CN in terms of AUC45/MAP” value ([1]; empagliflozin premixed with diet 25.3±0.9 mg/kg/day for 4 weeks, vs GK control diet, p<0.05, FIG. 2a)?
**A.** The value was “improved”.

**Q.** What about the “erectile responses to ES CN in terms of AUCtot/MAP” value ([1]; empagliflozin premixed with diet 25.3±0.9 mg/kg/day for 4 weeks, vs GK control diet, p<0.05, FIG. 2b) of the same molecule?
**A.** Its value is “improved”.

**Q.** And the “maximal relaxation induced by EFS at 32 Hz (percentage of inhibition of the contractile response to PHE)” value ([2]; 4-week empagliflozin 25.3±0.9 mg/kg/d, mean±SEM, not significantly different from untreated)?
**A.** The value was −42.0±2.9%.

**Q.** What about the “relaxation induced by EFS on PHE precontracted cavernosal strips (frequency-response curve)” value ([2]; 4-week treatment of empagliflozin at 25.3±0.9 mg/kg/d, vs untreated GK, p<0.05, 2-way ANOVA, FIG. 3) of the same molecule?
**A.** Its value is “slightly but significantly improved”.

**Q.** With `CN(C)C(=N)N=C(N)N` [metformin] as the molecule, how does the “average improvement in the HbA1c value” [3] read?
**A.** Its value is 1.0-1.5%.
